Test [1] has as its system carbon tetrachloride induced liver damage model in rats. Put plainly: Carbon tetrachloride induced liver damage model in rats (lipid peroxide in liver; serum GOT, GPT). The note with it: CCl4: 1 ml/kg, dose 10 mg/kg oral 3 times. Type of test: in vivo, rats (SD-strain, male). The procedure: Pharmacological Test Example 3: Effect on lipid peroxidation […] Effect of the compounds of the present invention on the produced lipid peroxide in liver was examined on carbon tetrachloride induced liver damage model in rats. Briefly, providing 5 SD-strain male rats (6 weeks old) for each group, carbon tetrachloride at the rate of 1 ml/kg or 2 ml/kg (0.5 ml/kg or 1 ml/kg based on carbon tetrachloride) was orally administered to the rats together with the equivalent dose of olive oil. At 24 hours after the administration of carbon tetrachloride, their livers were excised, and the produced amount of lipid peroxide in liver was determined by thiobarbituric acid method according to Uchiyama's method (Uchiyama, M., et al., Analytical biochemistry, 86, 271-278 (1978)). In parallel, as the indicator for liver disorder due to carbon tetrachloride, serum enzyme activity (GOT, GPT) was measured. Then each of the test compounds, which was either dissolved or suspended in either 0.1% hydrochloric acid solution or olive oil, was orally administered to the rats 3 times at 1 before and, 3 and 6 hours after the administration of carbon tetrachloride. For the rats of normal group and control groups, the solvent was orally administered. Based on the measured values for each groups, the inhibitory rate of producing peroxidized lipids and the inhibitory rate of causing liver disorder were calculated according to the following equation. Inhibitory rate of producing lipid peroxide (%)=[1−(Produced amount of lipid peroxide in the test compound group−Produced amount of lipid peroxide in the normal rat group)/(Produced amount of lipid peroxide in the control group−Produced amount of lipid peroxide in the normal rat group)]×100 Liver disorder preventing rate (%)=[1−(GOT amount of GPT amount in the test compound group−GOT amount or GPT amount in the normal rat group)/(GOT amount or GPT amount in the control group−GOT amount or GPT amount in the normal rat group)]×100 The results are presented in Table 8.

For the next test, the system named is cholesterol-fed hamsters. Nature of the test: Effect on serum lipids of cholesterol-fed hamsters (serum total cholesterol and triglyceride reduction rate). The note with it: cholesterol-fed Syrian hamsters, oral once a day for 5 days. It is filed as in vivo. As for the experimental part: Pharmacological Test Example 1: Effect on serum lipids of cholesterol-fed hamsters
Syrian hamsters (Std:Syrian, Male, 4 weeks old) were freely fed with chow containing 1% cholesterol and 10% coconut oil for 3 weeks ad libitum.
At the last week of feeding, each of the test compounds was dissolved or suspended in either 0.1% hydrochloric acid solution or 1% polyethylene-hydrogenated castor oil (NIKKOL HCO-60) solution and was orally administrated to hamsters once a day for 5 days. For the hamsters of the control group, only the solvent was orally administered. Then, blood was collected from the abdominal vein under the condition of anesthesia with pentobarbital at 2-4 hours after the last administration, and the serum in the blood was separated. The serum total cholesterol value and the serum triglyceride value were determined by using autobiochemical analyzer with analizing kits, and reduction rate of the serum lipids was determined according to the equation indicated below based on the analyzed values for respective hamster groups.
Serum lipids reduction rate (%)=(Amount of serum lipids of the control group−Amount of serum lipids of the group administrated with the test compound)/Amount of serum lipids of the control group×100

Test [2] has as its system Lipid peroxidation activity in rat liver microsome. Put plainly: Effect on lipid peroxidation in vitro (rat liver microsome, thiobarbituric acid method). It is filed as biochemical. The conditions noted are these: rat liver microsomes, 500 μM cystein and 5 μM ferrous(II) sulfate, malonaldehyde by thiobarbituric acid method; read-out: Lipid Antiperoxidation Activity 50% Inhibition Concentration (IC50). The procedure: Pharmacological Test Example 2: Effect on lipid peroxidation in vitro
Lipid peroxidation activity in rat liver microsome was determined according to the method of Malvy et al. (Malvy et al., Biochemical and Biophysical Research Communications, 95, 734-737 (1980)). More particularly, 500 μM cystein and 5 μM ferrous(II) sulfate were incubated with rat liver microsomes, and the amount of malonaldehyde produced due to the decomposition of lipid peroxide was determined according to thiobarbituric acid method. The concentration of the compounds required to inhibit the formation of lipid peroxide by 50% (IC50) was calculated.

Consider `CC1=C(C)C(=O)C(C(CCCc2ccccc2)CCC(=O)Nc2ccc(-n3ccnc3)cc2)=C(C)C1=O` (centres unmarked) [Compound No. 3-28, N-[4-(imidazol-1-yl)phenyl]-7-phenyl-4-(3,5,6-trimethyl-1,4-benzoquinon-2-yl)heptanamide], for which, in test [1] (liver at 24 hours), the “Antioxidation Activity of Lipid: Mass of lipid peroxide” value is listed as 5.781 A535nm/g lever and the “Antioxidation Activity of Lipid: Prevention Rate” value is 61%. In test [1] (serum), the “Preventive Activity on Liver Disorder: GOT” value was found to be 269 IU/L, the “Preventive Activity on Liver Disorder: GOT Prevention Rate” value is listed as 76%, the “Preventive Activity on Liver Disorder: GPT” value was 82 IU/L and the “Preventive Activity on Liver Disorder: GPT Prevention Rate” value was 82%. In the test on cholesterol-fed hamsters (dose 25 mg/kg), the “Serum lipids reduction rate comparing to Control group (%), Means of 3 animals: Total cholesterol” value was found to be 29% and the “Serum lipids reduction rate comparing to Control group (%), Means of 3 animals: Triglyceride” value was 23%. In addition, the IC50 in test [2] is 3300 nM.
For `Cc1c(C)c2c(c(C)c1O)CCC(C)(C(=O)NCCCCCC(=O)Nc1ccc(-n3ccnc3)cc1)O2` (racemic) [3-8], the IC50 in test [2] turned out to be 3800 nM.
As to `Cc1c(C)c2c(c(C)c1OC(=O)c1ccccc1)CCC(C)(C(=O)Nc1ccc(-n3ccnc3)cc1)O2` (racemic) [3-14], in the test on cholesterol-fed hamsters (dose 25 mg/kg), the “Serum lipids reduction rate comparing to Control group (%), Means of 3 animals: Total cholesterol” value came out at 22% and the “Serum lipids reduction rate comparing to Control group (%), Means of 3 animals: Triglyceride” value came out at 31%. The IC50 in test [2] was determined as 2600 nM.
On the same counts, the results for `Cc1c(C)c2c(c(C)c1O)CCC(C)(CC(=O)Nc1ccc(-n3ccnc3)cc1)O2` (racemic) [3-4] are 37%, 80% and 2300 nM.
`Cc1c(C)c2c(c(C)c1O)CC(C)(C=CC(=O)Nc1ccc(-n3ccnc3)cc1)O2` (racemic) [3-15]: in the test on cholesterol-fed hamsters (dose 25 mg/kg), the “Serum lipids reduction rate comparing to Control group (%), Means of 3 animals: Total cholesterol” value is 26% and the “Serum lipids reduction rate comparing to Control group (%), Means of 3 animals: Triglyceride” value turned out to be 30%. Further, the IC50 in test [2] worked out at 920 nM.
With `Cc1c(C)c2c(c(C)c1O)CC(C)(C=CC=CC(=O)Nc1ccc(-n3ccnc3)cc1)O2` (racemic) [3-16], the IC50 in test [2] stood at 2100 nM.
Take `Cc1c(C)c2c(c(C)c1O)CC(C)(CCC(=O)Nc1ccc(-n3ccnc3)cc1)O2` (racemic) [3-10]: in the test with cholesterol-fed hamsters (dose 25 mg/kg), the “Serum lipids reduction rate comparing to Control group (%), Means of 3 animals: Total cholesterol” value is 35% and the “Serum lipids reduction rate comparing to Control group (%), Means of 3 animals: Triglyceride” value was 51%. Moreover, the IC50 in test [2] worked out at 2100 nM.
In the case of `Cc1c(C)c2c(c(C)c1O)CCC(C)(CCC(=O)Nc1ccc(-n3ccnc3)cc1)O2` (racemic) [3-5], in test [2], the IC50 is 1300 nM.
On the same count and under the same terms, the same measure for `Cc1c(C)c2c(c(C)c1O)CC(C)(CCCCC(=O)Nc1ccc(-n3ccnc3)cc1)O2` (racemic) [3-12]: 2500 nM; for `CC(=O)Oc1c(C)c(C)c2c(c1C)CC(C)(C(=O)Nc1ccc(-c3ccn[nH]3)cc1)O2` (racemic) [3-19]: 420 nM.
Still for that read-out and setting: next, `Cc1c(C)c2c(c(C)c1O)CCC(C)(C(=O)Nc1ccc(-c3ccn[nH]3)cc1)O2` (racemic) [Compound No. 3-25, (±)-(6-hydroxy-2,5,7,8-tetramethylchroman-2-yl)-N-[4-(pyrrazol-5-yl)phenyl]carboxamide]: 490 nM.
With `CC(=O)Oc1c(C)c(C)c2c(c1C)CC(C)(C(=O)Nc1ccc(-n3ccnc3)cc1)O2` (racemic) [3-13], the IC50 in test [2] was 2800 nM.
With `O=C(Nc1ccc(-n2ccnc2)cc1)C1CCOCC1` [4-32], in the test on cholesterol-fed hamsters (dose 25 mg/kg), the “Serum lipids reduction rate comparing to Control group (%), Means of 3 animals: Total cholesterol” value amounted to 58% and the “Serum lipids reduction rate comparing to Control group (%), Means of 3 animals: Triglyceride” value was determined as 68%.
On the same counts, the results for `O=C(COc1ccc2ccccc2n1)Nc1ccc(-n2ccnc2)cc1` [4-96] are 36% and 50%.
Regarding `Cn1c(C(=O)Nc2ccc(-n3ccnc3)cc2)cc2ccccc21` [4-4], in the test on cholesterol-fed hamsters (dose 12.5 mg/kg), the “Serum lipids reduction rate comparing to Control group (%), Means of 3 animals: Total cholesterol” value was 23% and the “Serum lipids reduction rate comparing to Control group (%), Means of 3 animals: Triglyceride” value was found to be 32%.
In the case of `Cc1cc(C(=O)Nc2ccc(-n3ccnc3)cc2)n(C)n1` [4-14], in the test on cholesterol-fed hamsters (dose 25 mg/kg), the “Serum lipids reduction rate comparing to Control group (%), Means of 3 animals: Total cholesterol” value stood at 66% and the “Serum lipids reduction rate comparing to Control group (%), Means of 3 animals: Triglyceride” value is reported as 42%.
On to `O=C(Nc1ccc(-n2ccnc2)cc1)c1cc2cc(Cl)ccc2[nH]1` [Compound No. 4-8], for which, in the test on cholesterol-fed hamsters (dose 25 mg/kg), the “Serum lipids reduction rate comparing to Control group (%), Means of 3 animals: Total cholesterol” value is given as 37% and the “Serum lipids reduction rate comparing to Control group (%), Means of 3 animals: Triglyceride” value turned out to be 73%.
On the same counts, the results for `O=C(Nc1ccc(-n2ccnc2)cc1)C1CCc2ccccc2O1` (racemic) [4-11] are 43% and 47%.
Consider `O=C(CCOC1CCOC1)Nc1ccc(-n2ccnc2)cc1` (centres unmarked) [4-104], for which, in the test with cholesterol-fed hamsters (dose 25 mg/kg), the “Serum lipids reduction rate comparing to Control group (%), Means of 3 animals: Total cholesterol” value is listed as 25% and the “Serum lipids reduction rate comparing to Control group (%), Means of 3 animals: Triglyceride” value is 38%.
Taken in the same sequence, the figures for `O=C(Nc1ccc(-n2ccnc2)cc1)c1cnc2ccccc2c1` [4-66] were 55% and 66%.
Taken in the same sequence, the figures for `O=C(Cn1c(=O)ccc2ccccc21)Nc1ccc(-c2ccn[nH]2)cc1` [4-91] were 37% and 48%.
On to `O=C(COc1nccc(C(F)(F)F)n1)Nc1ccc(-n2ccnc2)cc1` [4-103], for which, in the test on cholesterol-fed hamsters (dose 25 mg/kg), the “Serum lipids reduction rate comparing to Control group (%), Means of 3 animals: Total cholesterol” value came out at 35% and the “Serum lipids reduction rate comparing to Control group (%), Means of 3 animals: Triglyceride” value came to 46%.
`Cc1cc(C(C)(C)C)c(O)c(C(C)(C)C)c1` [BHT, 2,6-t-Dibutyl-p-cresol, reference compound]: in test [2], the IC50 is 2200 nM.
As to `Cn1ccc(C(=O)Nc2ccc(-n3ccnc3)cc2)c1` [4-3], in the test with cholesterol-fed hamsters (dose 25 mg/kg), the “Serum lipids reduction rate comparing to Control group (%), Means of 3 animals: Total cholesterol” value was determined as 75% and the “Serum lipids reduction rate comparing to Control group (%), Means of 3 animals: Triglyceride” value was 91%.
Consider `Cc1c(C)c2c(c(C)c1O)CC(C)(C(=O)Nc1ccc(-n3ccnc3)cc1)O2` (racemic) [3-9], for which, in the test on cholesterol-fed hamsters (dose 25 mg/kg), the “Serum lipids reduction rate comparing to Control group (%), Means of 3 animals: Total cholesterol” value worked out at 38% and the “Serum lipids reduction rate comparing to Control group (%), Means of 3 animals: Triglyceride” value turned out to be 49%. Besides, the IC50 in test [2] was found to be 1900 nM.
In the case of `CC(C)c1cc(C(=O)Nc2ccc(-n3ccnc3)cc2)cc(O)n1` [4-28], in the test on cholesterol-fed hamsters (dose 12.5 mg/kg), the “Serum lipids reduction rate comparing to Control group (%), Means of 3 animals: Total cholesterol” value is 24% and the “Serum lipids reduction rate comparing to Control group (%), Means of 3 animals: Triglyceride” value is 34%.

For the origin of these results see patent publication US6342516B1, “Phenylazole compounds, process for producing the same and drugs for hyperlipemia” (Nippon Soda Co., Ltd., priority 1998, dated 2002).
